Literature values as cited in PMC2804221 (The Journal of Biological Chemistry, 2009).

Experiments:
[1] = tested on: isolated ECD of GLP-1R
[2] = tested on: GLP-1R

In the case of “Exendin-4(9–39): truncated form of exendin-4, and a competitive antagonist”, the IC50 [1] is listed as 6 nM and the “mode of action at GLP-1R” value [2] is listed as “competitive antagonist”.
